A word on the melting point: it is the temperature of the solid-liquid transition. `CCCCCC(=O)NS(=O)(=O)c1ccccc1NC(=O)c1cccc(OCC2CCCCC2)c1` [Example 27, N-[2-(3-Cyclohexylmethoxybenzamido)benzenesulfonyl]hexanamide] returned a melting point of 112 to 113 °C.

`CCCCCC(=O)NS(=O)(=O)c1ccccc1NC(=O)c1cccc(OCc2ccc([N+](=O)[O-])cc2)c1` [Example 21, N-[2-[3-(4-Nitrobenzyloxy)benzamido]benzenesulfonyl]hexanamide]: the melting point fell in the range of 138 to 141 °C.

As to `O=C(Nc1ccccc1S(=O)(=O)NC(=O)c1ccc(C(F)(F)F)cc1)c1cccc(OCc2ccccc2)c1` [Example 4, N-[2-(3-Benzyloxybenzamido)benzenesulfonyl]-4-trifluoromethylbenzamide], the melting point fell in the range of 220 to 221 °C.

For the compound `CC(=O)NS(=O)(=O)c1ccccc1NC(=O)c1cccc(OCc2ccccc2)c1` [Example 3, N-[2-(3-Benzyloxybenzamido)benzenesulfonyl]acetamide], the melting point is 195 to 196 °C.

`CCCCCC(=O)NS(=O)(=O)c1ccccc1NC(=O)c1cccc(OCc2ccccc2)c1` [Example 8, N-[2-(3-Benzyloxybenzamido)benzenesulfonyl]-n-hexanamide] yielded a melting point of 133 to 134 °C.

Consider `COc1ccc(C(=O)NS(=O)(=O)c2ccccc2NC(=O)c2cccc(OCc3ccccc3)c2)cc1` [Example 6, N-[2-(3-Benzyloxybenzamido)benzenesulfonyl]-4-methoxybenzamide], for which the melting point is 189 to 190 °C.

The compound `CC(C)(C)C(=O)NS(=O)(=O)c1ccccc1NC(=O)c1cccc(OCc2ccc(C(C)(C)C)cc2)c1` [Example 12, N-[2-[3-(4-t-Butylbenzyloxy)benzamido]benzenesulfonyl]pivalamide] showed a melting point of 193 to 194 °C.

Regarding `CC(C)=CC(=O)NS(=O)(=O)c1ccccc1NC(=O)c1ccc(C#Cc2ccccc2)cc1` [Example 42, 3-Methyl-N-[2-(4-phenylethynylbenzamido)benzenesulfonyl]-2-butenamide], the melting point fell in the range of 187 to 188 °C.

`CCCCCC(=O)NS(=O)(=O)c1ccccc1NC(=O)c1cccc(OCc2ccc(Cl)cc2)c1` [Example 18, N-[2-[3-(4-Chlorobenzyloxy)benzamido]benzenesulfonyl]hexanamide] displayed a melting point of 148 to 149 °C.

For `O=C(Nc1ccccc1S(=O)(=O)NC(=O)c1ccc(F)cc1F)c1cccc(OCc2ccccc2)c1` [Example 11, N-[2-(3-Benzyloxybenzamido)benzenesulfonyl]-2,4-difluorobenzamide], the melting point fell in the range of 208 to 209 °C.

In turn, `O=C(Nc1ccccc1S(=O)(=O)NC(=O)c1cccc(OCc2ccccc2)c1)c1cccc(OCc2ccccc2)c1` [Example 1, N-[2-(3-Benzyloxybenzamido)benzenesulfonyl]-3-benzyloxybenzamide] yielded a melting point of 172 to 173 °C.

Compound `CCCCNC(=O)NS(=O)(=O)c1ccccc1NC(=O)c1cccc(OCc2ccccc2)c1` showed a melting point of 177 to 178 °C.

Regarding `COc1ccc(COc2cccc(C(=O)Nc3ccccc3S(=O)(=O)NC(C)=O)c2)cc1` [Example 23, N-[2-[3-(4-methoxybenzyloxy)benzamido]benzenesulfonyl]acetamide], the melting point lay in the range of 114 to 117 °C.

`CCCCCC(=O)NS(=O)(=O)c1ccccc1NC(=O)c1cccc(OCc2ccc(OC)cc2)c1` [Example 24, N-[2-[3-(4-Methoxybenzyloxy)benzamido]benzenesulfonyl]hexanamide] returned a melting point of 154 to 157 °C.

For `CC(C)(C)C(=O)NS(=O)(=O)c1ccccc1NC(=O)c1ccc(C#Cc2ccccc2)cc1` [Example 41, N-[2-(4-Phenylethynylbenzamido)benzenesulfonyl]pivalamide], the melting point is 236 to 237 °C.

`O=C(Nc1ccccc1S(=O)(=O)NC(=O)c1ccc([N+](=O)[O-])cc1)c1cccc(OCc2ccccc2)c1` [Example 5, N-[2-(3-Benzyloxybenzamido)benzenesulfonyl]-4-nitrobenzamide] returned a melting point of 233 to 234 °C.

`O=C(NS(=O)(=O)c1ccccc1NC(=O)c1cccc(OCc2ccccc2)c1)Oc1ccccc1` gave a melting point of 163 to 164 °C.

Regarding `CC(=O)NS(=O)(=O)c1ccccc1NC(=O)c1ccc(C#Cc2ccccc2)cc1` [Example 38, N-[2-(4-Phenylethynylbenzamido)benzenesulfonyl]acetamide], the melting point was in the range of 214 to 215 °C.

`CCCCCCCOc1cccc(C(=O)Nc2ccccc2S(=O)(=O)NC(C)=O)c1` [Example 35, N-[2-(3-Heptyloxybenzamido)benzenesulfonyl]acetamide] yielded a melting point of 194 to 195 °C.

Compound `CC(=O)NS(=O)(=O)c1ccccc1NC(=O)c1cccc(OCc2ccc(C(F)(F)F)cc2)c1` [Example 32, N-[2-[3-(4-Trifluoromethylbenzyloxy)benzamido]benzenesulfonyl]acetamide] came in with a melting point of 164 to 165 °C.

With `CC(=O)NS(=O)(=O)c1ccccc1NC(=O)c1cccc(OCc2ccc(C(C)(C)C)cc2)c1` [Example 29, N-[2-[3-(4-t-Butylbenzyloxy)benzamido]benzenesulfonyl]acetamide], the melting point fell in the range of 190 to 191 °C.

Take `CCCCCCCOc1cccc(C(=O)Nc2ccccc2S(=O)(=O)NC(=O)CCCCC)c1` [Example 36, N-[2-(3-Heptyloxybenzamido)benzenesulfonyl]hexanamide]: the melting point lay within 200 to 201 °C.

In the case of `CCCCCCCCNC(=O)NS(=O)(=O)c1ccccc1NC(=O)c1cccc(OCc2ccccc2)c1`, the melting point lay within 124 to 125 °C.

(Values after patent US20030162818A1, “Acylsulfonamide derivative” (AJINOMOTO CO. INC., priority 1997, published 2003).)
